Measurements: publication PMC3636874, “An Antedrug of the CXCL12 Neutraligand Blocks Experimental Allergic Asthma without Systemic Effect in Mice” (The Journal of Biological Chemistry, 2013)
Converted amounts (≈) assume the structure as drawn. Read-outs that look alike come from different tables or passages of the source.

Experiments:
[1] = Stability in mouse lung homogenate; assay type: in vitro ADME; conditions: 37 °C; for half-life at 20 μM: mouse, mouse lung homogenate
Method: (§1) Solubility and stability studies were performed on a Gilson HPLC system with a photodiode array detector, an autosampler, and a Valco injector. Data acquisition and processing were performed with Trilution LC version 2.0 software. Measurements were carried out at 21 ± 1 °C. A 2.6-μm Kinetex column (50 × 4.6 mm) was used for stability studies in biological media, and a 5-μm Luna C18(2) column (50 × 4.6 mm) was used for solubility and chemical stability analysis. Both columns were purchased from Phenomenex. The injection volume was 20 μl, the mobile phase flow rate was 2 ml/min, and the following program was applied for the elution: 0–0.2 min, 0% B; 0.2–2.7 min, 0–100% B; 2.7–3.2 min, 100% B; 3.2–3.4 min, 100–0% B; 3.4–6.1 min, 0% B. Solvent B was HPLC grade acetonitrile (Sigma-Aldrich CHROMASOLV). The aqueous solvent contained 0.1% trifluoroacetic acid, and the detection wavelength was 365 nm.
Stability of chalcones was determined in mouse lung homogenate with or without HP-βCD 10% at 37 °C. Lung homogenate was prepared separately with a Fastprep® (Q-BIOgene, Illkirch, France) in PBS (one lung homogenized in 1 ml of buffer). For each compound, the incubation solutions, the sampling, and the extraction conditions were prepared as described under “Stability in Mouse Serum.”

[2] = test system: inflammatory cell recruitment in the airways of OVA-sensitized and challenged BALB/c mice; test: 8-day murine model of airway hypereosinophilia (OVA sensitization and challenge), cell counts in BALF; assay type: in vivo, mouse; conditions: for effect on eosinophil / inflammatory cell recruitment in BALF after OVA challenge, intranasal: intranasal 300 nmol/kg in 10% HP-βCD, 2 h before each challenge; for inhibition of eosinophil counts in BALF: intranasal, 300–500 nmol/kg in 10% HP-βCD, 2 h before each OVA challenge; for effect on inflammatory cell counts in BALF after OVA challenge, intraperitoneal in HP-βCD: twice daily 20 μmol/kg in 10% HP-βCD, 3 days; for effect on airway inflammation (BALF cell recruitment) after OVA challenge, intraperitoneal in carboxymethylcellulose: up to 350 μmol/kg once a day for 3 days in 1% carboxymethylcellulose
Method: The in vivo activity of the compounds was assessed in an 8-day model of hypereosinophilia created by immunization and challenge to ovalbumin in mice. Briefly, 9-week-old male BALB/c mice were sensitized by intraperitoneal injection of a mixture of 50 μg of ovalbumin (OVA, grade V; Sigma-Aldrich) adsorbed on aluminum hydroxide (2 mg; Sigma-Aldrich) in 0.1 ml of saline on days 0, 1, and 2. Mice were challenged intranasally with 10 μg of OVA in 25 μl of saline (12.5 μl/nostril) on days 5, 6, and 7. Control mice received intraperitoneal and intranasal administrations of saline alone. Intranasal administrations were performed under anesthesia with 50 mg/kg ketamine and 3.33 mg/kg xylazine given intraperitoneally. Food and water were supplied ad libitum. Animal experimentation was conducted with the approval of the government body that regulates animal research in France. The chalcone compounds were administered either by the intraperitoneal or intranasal routes. In a first set of experiments, mice received either chalcone 4 or carbonitrile-chalcone 4 solubilized in PBS with 10% HP-βCD (C0926, Sigma) by intranasal injection 2 h before each nasal OVA or saline challenge. In a second set of experiments, mice received CN-chalcone 4, vanillin, or parachlorobenzoylacetonitrile intranasally, in PBS with HP-βCD 10%, 2 h before each OVA or saline challenge. In the last set of experiments, mice received chalcone 4 or CN-chalcone 4 in suspension in carboxymethylcellulose 1% or solubilized in PBS with HP-βCD 10% and administered by intraperitoneal injection 2 h before each OVA or saline challenge. Collection of bronchoalveolar lavage fluid (BALF) was performed 24 h after the last OVA challenge. Mice were deeply anesthetized by intraperitoneal injection of 150 mg/kg ketamine and 10 mg/kg xylazine. A plastic canula was inserted into the trachea, and airways were lavaged by 10 instillations of 0.5 ml of ice-cold saline supplemented with 2.6 mM EDTA (saline-EDTA). Total and differential cell counts in the BALF were performed after centrifugation (300 × g for 5 min at 4 °C) to pellet cells. Erythrocytes were lysed by hypotonic shock by the addition of 1.5 ml of distilled H2O, followed by the addition of 0.5 ml of 0.6 M KCl. Cells were centrifuged and resuspended in 500 μl of ice-cold saline-EDTA, and total cell counts were determined using a hemocytometer (Neubauer's chamber). Differential cell counts were assessed on cytologic preparation obtained by cytocentrifugation (Cytospin 3, Shandon Ltd.) of 200 μl of diluted BALF (250,000 cells/ml in ice-cold saline-EDTA). Slides were stained with Hemacolor (Merck), and counts were performed on at least 400 cells for each preparation. Differential counts were expressed as absolute numbers or as a percentage of the total number of cells.
The in vivo activity of CN-chalcone 4 was assayed in a recently developed 8-day mouse model of airway hypereosinophilia ([24]). In this model, mice are sensitized by intraperitoneal injection of OVA (50 μg) adsorbed on 2 mg of aluminum hydroxide in 0.1 ml of saline on days 0, 1, and 2. Mice are then challenged intranasally with 10 μg of OVA in 25 μl of saline (12.5 μl/nostril) on days 5, 6, and 7. Drugs to be tested can be administered either systemically by the intraperitoneal route or locally by the intranasal route. The intranasal route mimics the inhalation exposure used in humans, which is the preferred and well accepted administration for inflamed airway treatment, in particular asthma. Thus, unless otherwise stated, drugs were administered intranasally in this study. Due to limited solubility of chalcone 4 (9 ± 1 μM) and CN-chalcone 4 (16 ± 2 μM) in saline buffer, drugs were dissolved in physiological solutions complemented with HP-βCD (10%, w/w). Under such conditions, chalcone 4 and CN-chalcone 4 could be dissolved at maximal concentrations reaching 690 ± 44 and 493 ± 36 μM, respectively.

[3] = Thermodynamic solubility (HPLC); assay type: physicochemical; conditions: for solubility: phosphate-buffered saline, PBS pH 7.4, 21 °C, 24 h shaking (CN-chalcone 4: 2 h, estimate), read-out: solubility in saline buffer; for maximal concentration dissolved with HP-βCD: physiological solution with 10% HP-βCD, 21 °C (CN-chalcone 4: 2 h, estimate)
Method: as §1
Thermodynamic solubility was measured by dissolving the compounds up to saturation in a pH 7.4 phosphate-buffered saline (PBS) with the following composition: 137.5 mM NaCl, 2.7 mM KCl, 4.3 mM Na2HPO4, and 1.4 mM KH2PO4 supplemented or not with 10% hydroxypropyl-β-cyclodextrin (HP-βCD). Samples were shaken for 24 h at 21 ± 1 °C. Saturation was confirmed by the presence of undissolved powder. After ultracentrifugation, the concentration in the supernatant was measured by an HPLC procedure using a calibration curve established for each compound by diluting a 10 mM DMSO stock solution to adapted concentrations. Due to rapid degradation of CN-chalcone 4, solubility was determined after 2 h of shaking. The indicated value given for CN-chalcone 4 is thus an estimate of the solubility.

[4] = with 10% HP-βCD, read-out: Stability half-life (t1/2), lung homogenate, 10% β-cyclodextrine (converted)

| percentage of starting molecule recovered, lung homogenate, 10% β-cyclodextrine ([1]; at 16 h) [%] | Structure (SMILES) | half-life at 20 μM ([1]; 10% HP-βCD, read-out: half-life in lung homogenate in the presence of HP-βCD) [min] | half-life at 20 μM [1, 4] [min] | half-life at 20 μM ([1]; read-out: Stability half-life (t1/2), lung homogenate (converted)) [min] | half-life at 20 μM ([1]; read-out: t½ in lung homogenate) [min] | effect on eosinophil / inflammatory cell recruitment in BALF after OVA challenge, intranasal [2] | inhibition of eosinophil counts in BALF [2] | effect on inflammatory cell counts in BALF after OVA challenge, intraperitoneal in HP-βCD [2] | effect on airway inflammation (BALF cell recruitment) after OVA challenge, intraperitoneal in carboxymethylcellulose [2] | solubility [3] [µM] | maximal concentration dissolved with HP-βCD [3] [µM] |
| --- | --- | --- | --- | --- | --- | --- | --- | --- | --- | --- | --- |
|  | COc1cc(/C=C(\C#N)C(=O)c2ccc(Cl)cc2)ccc1O [CN-chalcone 4, (E)-2-(4-chlorobenzoyl)-3-(4-hydroxy-3-methoxyphenyl)acrylonitrile] | 40 | 36 | 24 | 25 | as potent as chalcone 4 | up to 50% | did not affect any inflammatory cell counts | inactive | 16 ± 2 (≈ 5.02 µg/mL) | 493 ± 36 |
| 66 | COc1cc(/C=C/C(=O)c2ccc(Cl)cc2)ccc1O [chalcone 4] |  | > 960 |  |  | Significant reduction of eosinophil recruitment | up to 50% | significantly reducing eosinophils, neutrophils, and T cell counts in BALF | dose-dependent anti-inflammatory activity | 9 ± 1 (≈ 2.6 µg/mL) | 690 ± 44 |
